We go through three compounds from PMC6695665, “Interrogating the Essential Bacterial Cell Division Protein FtsQ with Fragments Using Target Immobilized NMR Screening (TINS)” (International Journal of Molecular Sciences, 2019).

Read-outs that look alike come from different tables or passages of the source.

Holding throughout (assay): 1H, […]-HSQC NMR chemical shift perturbation; TINS primary screen (T/R […])
Common to all, as to format: binding

Experiment [1] has as its target T1, FtsQ (Escherichia coli, UniProt P06136).
T1 construct: soluble periplasmic domain (FtsQp), 15N-labeled, N-terminal tags cleaved by TEV

For experiment [2], the target named is T1, FtsQ. The source holds these as a separate data set.
For experiment [3], the target named is T1, FtsQ. The source holds these as a separate data set.

T1 sequence (P06136 50-276): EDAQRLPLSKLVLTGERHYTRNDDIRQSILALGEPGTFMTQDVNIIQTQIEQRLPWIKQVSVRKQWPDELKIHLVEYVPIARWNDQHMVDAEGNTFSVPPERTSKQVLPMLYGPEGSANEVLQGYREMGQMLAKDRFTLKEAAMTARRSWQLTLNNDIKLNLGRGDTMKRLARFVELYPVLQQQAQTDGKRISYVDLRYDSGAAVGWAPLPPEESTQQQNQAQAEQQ

On to `N[C@@H](Cc1cn(Cc2ccccc2)cn1)C(=O)O` [compound 1], for which the Kd on FtsQ [1] was over 1 mM.
On to `C=C1[C@H](O)C[C@@H]2C[C@H]1C2(C)C` [compound 2], for which the Kd on FtsQ [2] is over 1 mM.
Regarding `CN(C)c1nc(=O)n(C2CCCCC2)c(=O)n1C` [compound 3], the Kd on FtsQ [3] was over 1 mM.
